Experimental data published in ChEMBL document CHEMBL1155158, “Early bactericidal activity of high-dose rifampin in patients with pulmonary tuberculosis evidenced by positive sputum smears” (Antimicrob Agents Chemother, 2007).

Columns and labels:
[1] = test system: Mycobacterium tuberculosis; test: Antimycobacterial activity against Mycobacterium tuberculosis infected patient assessed as sputum bacterial count at 20 mg/kg, po administered daily for 2 days; format: functional
[2] = test system: Mycobacterium tuberculosis; test: Antimycobacterial activity against Mycobacterium tuberculosis infected patient assessed as sputum bacterial count at 20 mg/kg, po administered daily for 5 days; format: functional
[3] = Tmax in Mycobacterium tuberculosis infected patient at 3 mg/kg; format: ADME, organism-based; design: dose 3 mg/kg; conditions: human, in vivo
[4] = Tmax in Mycobacterium tuberculosis infected patient at 6 mg/kg; format: ADME, organism-based; design: dose 6 mg/kg; conditions: human, in vivo
[5] = Tmax in Mycobacterium tuberculosis infected patient at 12 mg/kg; format: ADME, organism-based; design: dose 12 mg/kg; conditions: human, in vivo
[6] = Tmax in Mycobacterium tuberculosis infected patient at 20 mg/kg, po administered daily for 5 days; format: ADME, organism-based; design: dose 20 mg/kg, route oral; conditions: human, in vivo
Homo sapiens [7] = test: AUC (0 to infinity) in Mycobacterium tuberculosis infected patient at 3 mg/kg; format: ADME, organism-based, Plasma; design: time infinity, dose 3 mg/kg; conditions: in vivo
Homo sapiens [8] = test: AUC (0 to infinity) in Mycobacterium tuberculosis infected patient at 6 mg/kg; format: ADME, organism-based, Plasma; design: time infinity, dose 6 mg/kg; conditions: in vivo
[9] = test system: Mycobacterium tuberculosis; test: Antimycobacterial activity against Mycobacterium tuberculosis infected patient assessed as sputum bacterial count at 600 mg, po after 2 days; format: functional
clinical [10] = conditions: human, in vivo, 3 mg/kg
Description: Cmax in Mycobacterium tuberculosis infected patient at 3 mg/kg

clinical [11] = conditions: human, in vivo, 6 mg/kg
Description: Cmax in Mycobacterium tuberculosis infected patient at 6 mg/kg

clinical [12] = conditions: human, in vivo, 12 mg/kg
Description: Cmax in Mycobacterium tuberculosis infected patient at 12 mg/kg

clinical [13] = conditions: human, in vivo, po, 20 mg/kg
Description: Cmax in Mycobacterium tuberculosis infected patient at 20 mg/kg, po administered daily for 5 days

CO[C@H]1/C=C/O[C@@]2(C)Oc3c(C)c(O)c4c(O)c(c(/C=N/N5CCN(C)CC5)c(O)c4c3C2=O)NC(=O)/C(C)=C\C=C\[C@H](C)[C@H](O)[C@@H](C)[C@@H](O)[C@@H](C)[C@H](OC(C)=O)[C@@H]1C [RIFAMPIN]
log10CFU/ml [1]: 0.44
log10CFU/ml [2]: 0.3
Tmax [3]: 3.12 h
Tmax [4]: 3.67 h
Tmax [5]: 2.5 h
Tmax [6]: 3.27 h
AUC (Homo sapiens [7]): 13.1 µg/mL
AUC (Homo sapiens [8]): 24.5 µg/mL
log10CFU/ml [9]: 0.221
Cmax (clinical [10]): 2530 ng/mL
Cmax (clinical [11]): 3190 ng/mL
Cmax (clinical [12]): 13000 ng/mL
Cmax at 120 h (clinical [13]): 14000 ng/mL
